Several values for one entry are separate records, joined by “and”; a condition that tells them apart may be missing. Equal values may be shown once.
Assays:
STAT5B NTD = biological target: T1, STAT5B NTD (Homo sapiens, UniProt P51692); assay: Microscale thermophoresis (MST), without irradiation; assay type: binding; conditions: for ΔFnorm: Fnorm - Unbound value; for ΔFnorm / Fnorm: Php065 concentration [log; for Fnorm: MST raw data
T1 construct: His-SUMO (N, cleaved yes); made in house; host or cells: E. coli BL21 RILP
T1 sequence (P51692 1-123): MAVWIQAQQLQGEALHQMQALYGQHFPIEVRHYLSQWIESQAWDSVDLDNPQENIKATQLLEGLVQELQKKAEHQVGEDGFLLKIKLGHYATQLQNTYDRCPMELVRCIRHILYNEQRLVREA
Description: For the microscale thermophoresis (MST) studies, we prepared 16 two-fold serial dilutions of compounds starting from 500 μM. Titration series were prepared that contained 10 μL of compounds’ solutions of varying concentrations and 10 μL RED-NHS 2nd Generation labeled STAT5B NTD with a concentration of 168 nM for compound PhP097, and a concentration of 84 nM for compound PhP065. Final buffer composition included 1X PBS containing 0.5% DMSO. All measurements were taken in Premium Coated Capillaries on a Monolith NT.115 instrument (NanoTemper Technologies, Munich, Germany) using 80% infrared laser power for compound PhP097, 60% infrared laser power for compound PhP065, and an LED excitation source with λ = 650 nm at a temperature of 25 °C. Results were expressed as the mean of two separate experiments, with three technical replicates each. GraphPad Prism 9.5.1 software was used to fit the data and to determine the KD values.

MOLM-13 cells = assay: CellTiter-Blue cell viability assay, MOLM-13; assay type: cell-based; conditions: Homo sapiens, MOLM-13, 72 h
Description: MV4-11 and MOLM-13 cell lines were purchased from DSMZ (Braunschweig, Germany), and grown at 37 °C and 5% CO2 in RPMI 1640 medium (Gibco^TM, Thermo Fisher Scientific). Media were supplemented with 10% fetal calf serum (FCS), 10 U/mL penicillin, 10 µg/mL streptomycin and 2 mM L-glutamine (all Gibco^TM, Thermo Fisher Scientific).
To determine the IC50 of the selected compounds on the cell lines, CellTiter-Blue® cell viability assay (Promega) was performed. For this, cells were seeded in 96-well flat bottom plates at a cell density of 10,000 cells/well. Cells were treated in triplicates with the compound of interest at various concentrations or with 10 μM Bortezomib (S1013; Selleck Chemicals, Houston, TX, USA) as a positive control. Cell viability of treated cell lines was measured using CellTiter-Blue® after 72 h incubation. Plates were measured using a GloMax® plate reader (Promega) and IC50 values were determined by non-linear regression using the GraphPad Prism 9.1.1 (GraphPad Software, Inc.) and the data are reported as mean values ± SEM.

[1] = µM] -0.0102833, runs/replicates

Kd (STAT5B NTD; MST, without irradiation, 25 °C): 2.58 µM
IC50 (MOLM-13 cells): 100 µM
SMILES: Cc1[nH]c2ccccc2c1SCCNC(=O)CCC1(C)N=N1 [PhP065, c1cccc(c12)c(c(C)[nH]2)SCCNC(=O)CCC3(C)N=N3]
ΔFnorm (STAT5B NTD; µM] 0.290724, runs/replicates): 0.9086 ‰ and 1.12 ‰ and 1.315 ‰ and 0.6539 ‰ and 3.352 ‰
ΔFnorm (STAT5B NTD; µM] 0.591766, runs/replicates): 1.904 ‰ and 1.964 ‰ and 2.239 ‰ and 1.873 ‰ and 1.543 ‰
ΔFnorm (STAT5B NTD; µM] 0.89279, runs/replicates): 2.551 ‰ and 2.874 ‰ and 3.878 ‰ and 2.514 ‰ and 2.452 ‰
ΔFnorm (STAT5B NTD; µM] 1.19382, runs/replicates): 2.441 ‰ and 3.584 ‰ and 3.84 ‰ and 4.085 ‰ and 3.441 ‰
ΔFnorm (STAT5B NTD; µM] 1.49485, runs/replicates): 2.771 ‰ and 2.9356 ‰ and 3.692 ‰ and 3.134 ‰ and 1.982 ‰
ΔFnorm (STAT5B NTD; µM] 1.79588, runs/replicates): 5.943 ‰ and 5.783 ‰ and 5.743 ‰ and 2.367 ‰ and 1.87 ‰
ΔFnorm (STAT5B NTD; µM] 2.09691, runs/replicates): 3.3934 ‰ and 3.578 ‰ and 3.242 ‰ and 3.625 ‰ and 1.481 ‰
ΔFnorm (STAT5B NTD; [1]): -0.1141 ‰ and 1.411 ‰ and 0.9224 ‰ and 2.015 ‰ and 2.612 ‰
ΔFnorm (STAT5B NTD; µM] -0.612432, runs/replicates): 0.5449 ‰ and 0.5795 ‰ and -0.1361 ‰ and -1.636 ‰ and -0.3141 ‰
ΔFnorm (STAT5B NTD; µM] -1.21467, runs/replicates): -0.5121 ‰ and -0.1857 ‰ and -0.4698 ‰ and -1.614 ‰ and -1.146 ‰
Fnorm (STAT5B NTD; µM] 0.290724, runs/replicates): 864.059 ‰ and 864.76 ‰ and 864.855 ‰ and 874.324 ‰ and 877.312 ‰
Fnorm (STAT5B NTD; µM] 0.591766, runs/replicates): 865.054 ‰ and 865.604 ‰ and 865.779 ‰ and 875.543 ‰ and 875.503 ‰
Fnorm (STAT5B NTD; µM] 0.89279, runs/replicates): 865.701 ‰ and 866.514 ‰ and 867.418 ‰ and 876.184 ‰ and 876.412 ‰
Fnorm (STAT5B NTD; µM] 1.19382, runs/replicates): 865.591 ‰ and 867.224 ‰ and 867.38 ‰ and 877.755 ‰ and 877.401 ‰
Fnorm (STAT5B NTD; µM] 1.49485, runs/replicates): 865.921 ‰ and 866.576 ‰ and 867.232 ‰ and 876.804 ‰ and 875.942 ‰
Fnorm (STAT5B NTD; µM] 1.79588, runs/replicates): 869.093 ‰ and 869.423 ‰ and 869.283 ‰ and 876.037 ‰ and 875.83 ‰
Fnorm (STAT5B NTD; µM] 2.09691, runs/replicates): 866.543 ‰ and 867.218 ‰ and 866.782 ‰ and 877.295 ‰ and 875.441 ‰
Fnorm (STAT5B NTD; [1]): 863.036 ‰ and 865.051 ‰ and 864.462 ‰ and 875.685 ‰ and 876.572 ‰
Fnorm (STAT5B NTD; µM] -0.612432, runs/replicates): 863.695 ‰ and 864.219 ‰ and 863.404 ‰ and 872.034 ‰ and 873.646 ‰
Fnorm (STAT5B NTD; µM] -1.21467, runs/replicates): 862.638 ‰ and 863.454 ‰ and 863.07 ‰ and 872.056 ‰ and 872.814 ‰

Reference: article PMC11292009, “Mapping protein binding sites by photoreactive fragment pharmacophores” (Communications Chemistry, 2024)
